Molecular target: T1, HIV-1 reverse transcriptase, wild type (WT) (Human immunodeficiency virus type 1 group M subtype B, UniProt P03367)
T1 construct: Reverse transcriptase enzyme from the LAV strain of Human Immunodeficiency Virus (HIV-1); made in house; host or cells: Escherichia coli JM109 (clone pBRTprtl+ in vector pIBI21)
Assay: Reverse Transcriptase Assay, wild type (WT) enzyme (RNA-dependent DNA polymerase activity; poly r(C)/oligo d(G), 3H-dGTP)
Format: biochemical, HIV-1 (LAV strain)
Details: wild type (WT) RT
Source text: Utilizing the Reverse Transcriptase (RT) Assay described below, compounds can be tested for their ability to inhibit the RNA-dependent DNA polymerase activity of HIV-1 RT. Certain specific compounds described in the Examples which appear below, were so tested.
Among the enzymes for which Human Immunodeficiency Virus (HIV-1) encodes is a reverse transcriptase (1), so-named because it transcribes a DNA copy from an RNA template. This activity can be quantitatively measured in a cell-free enzyme assay, which has been previously described (2), and is based upon the observation that reverse transcriptase is able to use a synthetic template [poly r(C) primed with oligo d(G)] to transcribe a radio-labelled, acid-precipitable DNA strand utilizing ^3 H-dGTP as a substrate. The assay described below utilizes the wild type (WT) enzyme, which is the predominant form of the enzyme observed in patients infected with HIV-1. Utilization of mutant RT enzymes (Y181C and Y181L, prepared by site-directed mutagenesis in which the tyrosine residue at codon 181 has been replaced by a cysteine or a leucine residue, respectively) and analogous assay conditions allows compounds to be evaluated for their effectiveness at inhibiting these mutant enzymes.
a) Preparation of the wild type enzyme Reverse transcriptase enzyme from the LAV strain of Human Immunodeficiency Virus (HIV-1) (1) was isolated from the bacterial strain JM109 (3) expressing the DNA clone pBRTprtl+ (2) which is under the control of the lac promotor in the expression vector pIBI21 (4). An overnight culture grown in 2XYT medium (37° C., 225 rpm) (5) supplemented with 100 μg/mL ampicillin for positive selection is inoculated at a 1:40 dilution into M9 medium supplemented with 10 μg/mL thiamine, 0.5% casamino acids, and 50 μg/mL ampicillin (5). The culture is incubated (37° C., 225 rpm) until it reaches an OD540 of 0.3-0.4. At that time the repressor inhibitor IPTG (isopropyl β-D-thiogalactopyranoside) is added to 0.5 mM, and the mixture is incubated for 2 additional hours. Bacteria are pelleted, resuspended in a 50 mM Tris, 0.6 mM EDTA, 0.375M NaCl buffer and digested by the addition of lysozyme (1 mg/mL) for 30 minutes on ice. The cells are lysed by the addition of 0.2% NP-40 and brought to 1M NaCl.
After removal of the insoluble debris by centrifugation, the protein is precipitated by the addition of 3 volumes of saturated aqueous ammonium sulfate. The enzyme is pelleted, resuspended in RT buffer (50 mM Tris pH 7.5, 1 mM EDTA, 5 mM DTT, 0.1% NP-40, 0.1M NaCl, and 50% glycerol), and stored at -70° C. for further use.
b) Composition of 2× concentrated stock reaction mixture
[poly r(C)/oligo d(G)] (5:1)
The 2× concentrated stock reaction mixture is aliquoted and stored at -20° C. The mixture is stable and thawed for use in each assay. This enzyme assay has been adapted to a 96 well microtiter plate system, and has been previously described (6). Tris buffer (50 mM, pH 7.4), vehicle (solvent diluted to match the compound dilution), or compounds in vehicle are dispensed into 96-well microtiter plates (10 μL/well; 3 wells/compound). The HIV-1 RT enzyme is thawed, diluted in 50 mM Tris pH 7.4 so that fifteen μL of diluted enzyme contain 0.001 Unit (one unit is that amount of enzyme to transform 1 micromole of substrate per minute at 25° C.), and fifteen μL are dispensed per well. Twenty μL of 0.12-0.5M EDTA are added to the first three wells of the microtiter plate. EDTA chelates the Mg^++ present and prevents reverse transcription. This group serves as background polymerization which is subtracted from all other groups. Twenty-five μl of the 2× reaction mixture are added to all wells and the assay is allowed to incubate at room temperature for 60 minutes. The assay is terminated by precipitating the DNA in each well with 50 μL of 10% trichloracetic acid (TCA) (10% w/v) in sodium pyrophosphate (1% w/v). […]

| Structure (SMILES) | inhibition at 1 µM [%] |
| --- | --- |
| CCC1c2ncccc2N(C)C(=O)c2ccc[n+]([O-])c21 (stereo not shown) [Example 1, 5,11-Dihydro-11-ethyl-5-methyl-10-oxo-6H-dipyrido[3,2-b:2',3'-e]azepin-6-on] | 68 |
| CCC1c2ncccc2C(=O)N(C)c2cccnc21 (stereo not shown) [Example 2, 5,11-Dihydro-11-ethyl-5-methyldipyrido[3,2-b:2',3'-e]azepine-6-one] | 62 |
| CCCC1c2ncccc2C(=O)N(C)c2cccnc21 (stereo not shown) [Example 3, 5,11-Dihydro-11-propyl-5-methyldipyrido[3,2-b:2',3'-e]azepine-6-one] | 64 |
| CCC1(C)c2ncccc2C(=O)N(C)c2cccnc21 (stereo not shown) [Example 4, 5,11-Dihydro-11-ethyl-11-methyl-5-methyldipyrido[3,2-b:2',3'-e]azepine-6-one] | 68 |
| CCC1(CC)c2ncccc2C(=O)N(C)c2cccnc21 [Example 5, 5,11-Dihydro-11-diethyl-5-methyldipyrido[3,2-b:2',3'-e]azepine-6-one] | 62 |
| CN1C(=O)c2cccnc2C2(CCCC2)c2ncccc21 [Example 6, 5,11-Dihydro-11-spirocyclopentyl-5-methyldipyrido[3,2-b:2',3'-e]azepine-6-one] | 62 |
| CCC1c2nc(OC)ccc2N(C)C(=O)c2ccc[n+]([O-])c21 (stereo not shown) [Example 7, 5,11-Dihydro-11-ethyl-2-methoxy-5-methyl-10-oxodipyrido[3,2-b:2',3'-e]azepine-6-one] | 75 |
| CCC1c2ncccc2C(=O)N(C)c2ccc(OC)nc21 (stereo not shown) [Example 8, 5,11-Dihydro-11-ethyl-2-methoxy-5-methyl-dipyrido[3,2-b:2',3'-e]azepine-6-one] | 84 |
| CCC1(CC)c2ncccc2C(=O)N(C)c2ccc(OC)nc21 [Example 9, 5,11-Dihydro-11-diethyl-2-methoxy-5-methyl-dipyrido[3,2-b:2',3'-e]azepine-6-one] | 66 |
| COc1ccc2c(n1)C(SC)c1c(ccc[n+]1[O-])C(=O)N2C (stereo not shown) [Example 10, 5,11-Dihydro-11-methylthio-2-methoxy-5-methyl-10-oxodipyrido[3,2-b:2',3'-e]azepine-6-one] | 91 |
| COc1ccc2c(n1)C(SC)c1ncccc1C(=O)N2C (stereo not shown) [Example 11, 5,11-Dihydro-11-methylthio-2-methoxy-5-methyl-dipyrido[3,2-b:2',3'-e]azepine-6-one] | 80 |
| COc1ccc2c(n1)C(C)(SC)c1ncccc1C(=O)N2C (stereo not shown) [Example 12, 5,11-Dihydro-11-methyl-11-methylthio-2-methoxy-5-methyl-dipyrido[3,2-b:2',3'-e]azepine-6-one] | 41 |
| CCC1c2ncccc2C(=O)N(C)c2ccc(-c3cn[nH]c3)nc21 (stereo not shown) [Example 13, 5,11-Dihydro-11-ethyl-2-(4-pyrazolyl)-5-methyl-dipyrido[3,2-b:2',3'-e]azepine-6-one] | 80 |

From US5908841A, “5,11-dihydro-6H-dipyrido[3,2-b:2',3'-e]azepine-6-ones and their use in the prevention of treatment of HIV infection” (priority 1998, dated 1999)
